Assay results: patent publication US20120208809A1, “9H-PYRROLO[2,3-B: 5,4-C'] DIPYRIDINE AZACARBOLINE DERIVATIVES, PREPARATION THEREOF, AND THERAPEUTIC USE THEREOF” (SANOFI, priority 2009, published 2012)
pEC50, pIC50: −log10 of the molar value.

What was measured:
[1] = target: T1, Pim-3 (Homo sapiens, UniProt Q86V86); assay: TR-FRET assay of Pim kinase activity (phosphorylation of Bad Ser112), Pim-3; format: biochemical; details: ATP 40 μM, read-out: IC50 Pim3
T1 construct: full-length human recombinant His6-labelled Pim-1, Pim-2 or Pim-3 protein; His6; made in house
How it was run: (§1)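 Full-length His6-tagged human Pim-1, -2 or -3 phosphorylate full-length His6-Bad at 40 μM ATP; phospho-Ser112 detected by TR-FRET (Eu anti-phosphoBad, APC anti-His6), 665/615 nm ratio. Compounds run at 10 concentrations in duplicate, typically top 30 μM; IC50 from 4-parameter logistic fit.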

[2] = tested on: phosphoBAD (DND-41); assay: Level of phosphorylation of Bad by ELISA, DND-41 cell line; format: cell-based; details: Homo sapiens, DND41, DND-41 cells, 3 hours at 37° C.
Method: (§2) The activity of the molecules is evaluated on the JEKO or DND-41 cell line by measuring the level of phosphorylation of Bad and the total Bad content, via the ELISA technique.
(§3) The JEKO or DND-41 cells are resuspended at a concentration of 500 000 cells per ml. The cells are then diluted in RPMI-1640 medium containing 20% foetal calf serum. 225 μl of cells are placed in a plate. Serial dilutions of the molecules are then performed (8 points, three-fold dilution, range started at 10 mM). Each dilution point is then diluted to 1/100 in medium. Next, 25 μl of each of the concentrations are added to the cells and then incubated for 3 hours at 37° C.
(§4) 100 μl of the cells are transferred into a plate treated with poly-D-Lysine. The plate is then incubated for 5-10 minutes at 37° C. and then centrifuged for 5 minutes at 1500 rpm. A volume of 100 μl of 8% fixing solution (solution of formaldehyde in PBS buffer) is added to each of the wells. After covering with a self-adhesive film and a lid, the plate is incubated for 20 minutes at room temperature and then stored at 4° C. overnight.
(§5) Next, the liquid is removed and two successive washes are performed with washing buffer. 100 μl of quenching buffer are added, followed by incubating for 15 minutes at room temperature. After washing, 100 μl of […] at room temperature. After washing, 50 μl of primary antibody diluted to 1/250 for pBAD (Cell Signaling Cat#5284) and to 1/500 for Bad (MBL Cat#591) are added to each of the plates. Each plate is incubated for 2 hours at room temperature. After two washes, 50 μl of secondary antibody (diluted to 1/16) are added to the pBAD plate (tebu-bio ref; FE-021) and 50 μl of the HRP-conjugated IgG secondary antibody (Santa Cruz Cat #SC-2004; diluted to 1/1000) are added to the Bad plate. Incubation for 1 hour at room temperature is performed. Four washes with the washing solution are performed, followed by three washes with PBS. Finally, 100 μl of the developing solution are added, followed by incubation for 10 minutes. Finally, 100 μl of the quenching solution are added, before reading at 450 nm.

[3] = tested on: EOL-1; assay: Cell viability assay (CellTiter-Blue), EOL-1; format: cell-based; details: Homo sapiens, EOL1, read-out: EC50 EOL-1 μM (eosinophilic leukaemia), EOL-1 cells, read-out: EC50 EOL-1 μM (lymphoma);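 further: EOL-1 is an acute myeloid eosinophilic leukaemia line not a lymphoma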
How it was run: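 Cells exposed 48, 72 or 96 h (preferably 72 h) to nine 3-fold dilutions, top dose 10 μM or 30 μM. Viability read by resazurin-to-resorufin fluorescence after 4 h CellTiter-Blue; EC50 is concentration giving 50% reduction in viability/proliferative expansion.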

[4] = tested on: MV4-11; assay: Cell viability assay (CellTiter-Blue), MV4-11; format: cell-based; details: Homo sapiens, read-out: EC50 MV4-11 μM (acute myeloid leukemia), MV4-11 cells, read-out: EC50 MV4-11 μM (myeloma)
How it was run: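 MOLM-13 or MV4-11 cells incubated 48, 72 or 96 h (preferably 72 h) with nine 3-fold compound dilutions, top dose 10 μM or 30 μM. Viability read by CellTiter-Blue resazurin reduction over 4 h (fluorescence). EC50 is the concentration giving 50% reduction of viability/proliferative expansion.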

[5] = tested on: MOLM-13; assay: Cell viability assay (CellTiter-Blue), MOLM-13; format: cell-based; details: Homo sapiens, read-out: EC50 MOLM-13 μM, MOLM-13 cells, read-out: EC50 MOLM-13 μM (myeloma)
Method: The representative compounds of the invention are also screened as regards their effects on cell proliferation and viability, using a variety of tumoral cell lines of human source, representative of different pathological indications. These cell lines include:
In order to measure the viability, the tumour cells are incubated in 96-well or 384-well format for 48, 72 or 96 hours, preferably 72 hours, with a compound of the invention at dilutions of a factor 3, with, in general, nine doses in total, the highest dose being equal to 10 μM or 30 μM. The cell viability is evaluated by adding CellTiter-Blue® (Promega, Madison, Wis., United States) for 4 hours and endpoint readings are taken using a SpectraMax Genmini EM plate reader (Molecular Devices, Sunnyvale, Calif., United States). The CellTiter-Blue® cell viability assay measures the ability of the cells in culture to reduce resazurin to resorufin, the intensity of the fluorescence signal being directly proportional to the number of live cells. The EC50 represents the concentration of compound that leads to a 50% reduction of the viability/proliferative expansion of the cells.

[6] = target: T2, Pim-1 (Homo sapiens, UniProt P11309); assay: TR-FRET assay of Pim kinase activity (phosphorylation of Bad Ser112), Pim-1; format: biochemical; details: ATP 40 μM, read-out: IC50 Pim1
T2 construct: full-length human recombinant His6-labelled Pim-1, Pim-2 or Pim-3 protein; His6; made in house
How it was run: as §1

[7] = target: CDK1 (Homo sapiens, UniProt P06493); assay: Biochemical results, IC50 CDK1
[8] = target: PLK1 (Homo sapiens, UniProt P53350); assay: Biochemical results, IC50 PLK1
[9] = tested on: phosphoBAD (JEKO); assay: Level of phosphorylation of Bad by ELISA, JEKO cell line; format: cell-based; details: Homo sapiens, JEKO cells, 3 hours at 37° C.
Method: as §2, §3, §4, §5

[10] = target: T3, Pim-2 (Homo sapiens, UniProt Q9P1W9); assay: TR-FRET assay of Pim kinase activity (phosphorylation of Bad Ser112), Pim-2; format: biochemical; details: ATP 40 μM, read-out: IC50 Pim2
T3 construct: full-length human recombinant His6-labelled Pim-1, Pim-2 or Pim-3 protein; His6; made in house
How it was run: as §1

T2 sequence (P11309 whole entry): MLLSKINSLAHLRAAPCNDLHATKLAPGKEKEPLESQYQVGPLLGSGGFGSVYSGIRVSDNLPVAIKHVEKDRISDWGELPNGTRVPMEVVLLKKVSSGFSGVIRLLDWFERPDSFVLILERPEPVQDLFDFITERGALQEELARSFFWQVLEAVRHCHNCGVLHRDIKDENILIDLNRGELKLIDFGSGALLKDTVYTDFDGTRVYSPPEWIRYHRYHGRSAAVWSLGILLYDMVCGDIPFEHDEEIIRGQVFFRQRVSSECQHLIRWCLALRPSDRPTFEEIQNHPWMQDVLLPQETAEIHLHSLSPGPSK
T3 sequence (Q9P1W9 whole entry): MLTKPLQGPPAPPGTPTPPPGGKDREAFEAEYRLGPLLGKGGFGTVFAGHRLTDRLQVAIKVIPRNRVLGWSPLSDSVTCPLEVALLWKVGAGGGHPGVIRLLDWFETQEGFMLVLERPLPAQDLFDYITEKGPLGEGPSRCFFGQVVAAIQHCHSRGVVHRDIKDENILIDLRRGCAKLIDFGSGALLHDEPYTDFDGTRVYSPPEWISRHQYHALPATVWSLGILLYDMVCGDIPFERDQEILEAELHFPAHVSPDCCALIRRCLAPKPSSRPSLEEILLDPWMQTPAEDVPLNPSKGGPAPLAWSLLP
PLK1, sequence (P53350 whole entry, species assumed): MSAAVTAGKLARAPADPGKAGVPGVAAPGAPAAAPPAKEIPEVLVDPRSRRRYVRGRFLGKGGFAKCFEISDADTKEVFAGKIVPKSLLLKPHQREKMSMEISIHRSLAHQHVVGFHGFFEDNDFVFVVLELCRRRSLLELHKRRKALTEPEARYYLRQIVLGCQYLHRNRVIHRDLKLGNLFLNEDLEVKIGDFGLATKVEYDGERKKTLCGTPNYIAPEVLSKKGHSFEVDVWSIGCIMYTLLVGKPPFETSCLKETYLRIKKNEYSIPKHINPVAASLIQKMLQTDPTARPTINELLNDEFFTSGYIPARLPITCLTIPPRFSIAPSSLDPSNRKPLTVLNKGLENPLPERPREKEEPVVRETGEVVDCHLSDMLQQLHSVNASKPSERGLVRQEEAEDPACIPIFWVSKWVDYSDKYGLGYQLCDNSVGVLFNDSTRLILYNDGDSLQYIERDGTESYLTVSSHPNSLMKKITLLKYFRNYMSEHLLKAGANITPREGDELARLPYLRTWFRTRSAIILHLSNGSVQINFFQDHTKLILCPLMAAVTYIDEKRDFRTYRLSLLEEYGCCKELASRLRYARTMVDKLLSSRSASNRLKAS
CDK1, sequence (P06493 whole entry, species assumed): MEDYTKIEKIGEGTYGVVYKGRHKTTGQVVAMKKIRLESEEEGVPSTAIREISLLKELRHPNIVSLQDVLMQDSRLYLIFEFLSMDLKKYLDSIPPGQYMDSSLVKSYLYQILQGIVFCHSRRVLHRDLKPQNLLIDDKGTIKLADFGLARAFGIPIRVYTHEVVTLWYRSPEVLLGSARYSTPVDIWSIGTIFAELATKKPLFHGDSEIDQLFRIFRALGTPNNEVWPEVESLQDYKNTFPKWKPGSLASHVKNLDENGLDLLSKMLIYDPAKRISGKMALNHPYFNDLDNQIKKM
CDK1, sequence (P14635 whole entry partner, species assumed): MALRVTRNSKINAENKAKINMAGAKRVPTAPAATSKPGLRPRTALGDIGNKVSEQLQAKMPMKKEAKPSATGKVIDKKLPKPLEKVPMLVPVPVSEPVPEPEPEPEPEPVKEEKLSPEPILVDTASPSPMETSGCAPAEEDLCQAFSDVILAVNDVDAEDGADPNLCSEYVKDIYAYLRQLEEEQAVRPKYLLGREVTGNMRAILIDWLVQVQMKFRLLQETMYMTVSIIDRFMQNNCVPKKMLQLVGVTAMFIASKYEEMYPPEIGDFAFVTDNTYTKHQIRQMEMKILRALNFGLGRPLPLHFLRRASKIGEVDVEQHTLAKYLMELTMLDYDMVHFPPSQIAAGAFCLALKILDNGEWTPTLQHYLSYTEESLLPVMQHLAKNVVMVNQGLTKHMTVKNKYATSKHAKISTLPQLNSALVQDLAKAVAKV

Row | Compound | pIC50 [1] | pIC50 [2] | pEC50 [3] | pEC50 [4] | pEC50 [5] | pIC50 [6] | pIC50 [7] | pIC50 [8] | pIC50 [9] | pIC50 [10]
1 | CN(C)CCNC(=O)c1ccc(-c2c(F)cnc3[nH]c4cnc(-c5cccnc5)cc4c23)cc1 [Example 9, N-[2-(dimethylamino)ethyl]-4-[3-fluoro-6-(pyridin-3-yl)-9H-pyrrolo-[2,3-b:5,4-c′]dipyridin-4-yl]benzamide] | > 7.00 | 5.30 to 6.00 | > 7.00 | > 7.00 | 6.00 to 7.00 | > 7.00 | 6.00 to 7.00 | 6.00 to 7.00 | 6.00 to 7.00 | > 7.00
2 | CN(C)CCNC(=O)c1ccc(-c2ccnc3[nH]c4cnc(-c5cnn(C)c5)cc4c23)cc1 [Example 44] | > 7.00 | 6.00 to 7.00 | > 7.00 | > 7.00 |  | > 7.00 | 6.00 to 7.00 | 6.00 to 7.00 | 6.00 to 7.00 | > 7.00
